Tested on: polypeptide according to the invention (membrane receptor for steroids and sterols)
Assay: Receptor binding studies (binding assay) with radiolabeled steroids and sterols
Set-up: species or system human
Settings: qualitative statement in the description; no value given
Procedure: In addition, the invention relates to a test system for identifying effectors of a polypeptide according to the invention, whereby a polypeptide according to the invention is incubated as a complete or partial sequence thereof with a steroid, a steroid analog or a sterol, and the amount of bound steroid, steroid analog or sterol is detected. As a partial sequence, e.g., the area that comprises the “leucine-rich repeats” and the island domain or shorter strands thereof can be used. The binding of the effectors can be measured, e.g., by labeled substances being used and the labeling (e.g., radioactivity or fluorescence) being measured. A displacement reaction can also be measured, however, by a binding labeled steroid being used and the displacement of the labeling by the receptor being measured after the addition of the substances to be tested. […]
Crude extracts and cytosol fractions (0.04 ml) were incubated at 4° C. for 2 hours with 10 μl of radioactive steroid or sterol (concentration in the batch 10 nmol/l) either in the absence or in the presence of a 100× excess of a non-radioactive substance (for determining the unspecific bond). […] After centrifuging (5 minutes, 15,000 g), an aliquot of the supernatant was removed, and the radioactivity was determined by means of a scintillation counter. […]

binding of the substance by the polypeptide according to the invention: binds
Structure (SMILES): CC(C)=CCC[C@@H](C)[C@H]1CC=C2C3=C(CC[C@@]21C)[C@@]1(C)CC[C@H](O)C(C)(C)[C@@H]1CC3 [FF-MAS]
